Results on 22 compounds are retold here after patent publication EP4782453A1 (Beyang Therapeutics Co., Ltd., priority 2023, dated 2025).

Molecules are shown by their SMILES. Where two headings read alike, the source gives them in different places.

One experiment deals with T1, Menin-MLL (Homo sapiens, UniProt O00255).
T1 construct: His-Menin (M1-L615 end); purchased BIORTUS BP9210
T1 sequence (O00255 1-615 isoform O00255-1): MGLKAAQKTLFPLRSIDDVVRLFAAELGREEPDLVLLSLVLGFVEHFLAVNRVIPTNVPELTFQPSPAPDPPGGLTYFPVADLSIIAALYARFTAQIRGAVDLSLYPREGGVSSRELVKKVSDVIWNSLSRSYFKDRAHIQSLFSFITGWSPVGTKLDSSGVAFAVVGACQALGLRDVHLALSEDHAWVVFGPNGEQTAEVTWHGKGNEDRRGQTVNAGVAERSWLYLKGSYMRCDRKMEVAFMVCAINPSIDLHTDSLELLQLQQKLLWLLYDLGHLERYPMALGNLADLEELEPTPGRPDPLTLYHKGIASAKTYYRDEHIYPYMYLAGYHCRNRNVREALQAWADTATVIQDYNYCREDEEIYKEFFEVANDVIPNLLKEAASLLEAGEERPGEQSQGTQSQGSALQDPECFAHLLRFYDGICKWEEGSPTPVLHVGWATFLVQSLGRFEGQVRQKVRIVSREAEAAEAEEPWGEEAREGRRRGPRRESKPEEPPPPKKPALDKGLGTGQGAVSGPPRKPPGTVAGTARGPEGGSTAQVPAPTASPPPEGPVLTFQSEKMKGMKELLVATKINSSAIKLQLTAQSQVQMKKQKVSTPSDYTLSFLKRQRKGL
Put plainly: Inhibitory activity against Menin-MLL binding (fluorescence polarization). The note with it: 150 nM His-Menin, 15 nM FITC-MLL, 25°C for 60 min. The gist of the method: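 His-Menin (M1-L615, 150 nM) preincubated with compound 15 min at 25 °C in HEPES pH 7.5, 50 mM NaCl, 1 mM DTT, 0.01% BSA, then 15 nM FITC-MLL4-43 peptide added for 60 min at 25 °C. Fluorescence polarization read; IC50 from 4-parameter logistic fit, duplicates.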
In general terms: Fluorescence polarisation rises when a labelled molecule tumbles more slowly, as on binding a larger partner.

In experiment [1] the test system is MOLM-13 (carrying MLL-AF9). The experiment can be described thus: Inhibition of proliferation of human tumor cells (Alamar Blue, 7 days), MOLM-13. In kind it is cell-based. The following applies: Homo sapiens, MOLM-13 cells (carrying MLL-AF9), method calls the value GI50. The gist of the method:
(§1)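 Seven-day continuous compound exposure in duplicate wells, with 0.1% DMSO vehicle. Proliferation is quantified by Alamar Blue fluorescence and expressed as GI50, using Day 0 readings as the low reference.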
A general note: Resazurin is reduced to fluorescent resorufin, in cell work by metabolically active cells.

For experiment [2], the system named is MV-4-11 (carrying MLL-AF4). The experiment can be described thus: Inhibition of proliferation of human tumor cells (Alamar Blue, 7 days), MV-4-11. It counts as cell-based. The following applies: Homo sapiens, MV4-11, 168 h, MV-4-11 cells (carrying MLL-AF4), method calls the value GI50. The gist of the method:
as §1

Setting [3] is: fluorescence polarization, read-out: Menin-MLL IC50.
[4] abbreviates: Menin-MLL IC50, fluorescence polarization.

A word on the IC50: it is the point on the concentration scale where inhibition reaches its midpoint. For the compound `Cc1nc(F)c2c(-c3ccc(F)cc3C(=O)N3[C@H](C)COC[C@H]3C)cc(C3CN(CC4CCN(C(=O)C5CCOCC5)CC4)C3)cn12` [Example 221], the IC50 on Menin-MLL (setting [3]) stood at 27 nM; in experiment [1] (168 h), 27 nM; in experiment [2], 12 nM.

Consider `CCN(C(=O)c1cc(F)ccc1-c1cc(CC2CN([C@H](CCCN(C)CCOC)C(C)C)C2)n2c(C)cncc12)C(C)C` [Example 296-1, N-ethyl-5-fluoro-2-[6-({1-[(3R)-6-[(2-methoxyethyl)(methyl)amino]-2-methylhexan-3-yl]azacyclobutan-3-yl}methyl)-4-methylpyrrolo[1,2-a]pyrazin-8-yl]-N-(isopropyl)benzamide], for which the results for the IC50 (at Menin-MLL (setting [3]); in experiment [1] (168 h); in experiment [2]) were 1 nM, 3 nM and 0.75 nM, respectively.

For the compound `CCN(C(=O)c1cc(F)ccc1-c1cc(C2CN([C@H](CCCN3CCN(C)CC3)C(C)C)C2)cc2c1cnn2C)C(C)C` [Example 420], the IC50 amounted to 3.8 nM on Menin-MLL (setting [3]), 43 nM in experiment [1] (168 h) and 18 nM in experiment [2].

Take `CCS(=O)(=O)N[C@H]1CC[C@H](CN2CCC(c3cc(-c4ccc(F)cc4C(=O)N(CC(F)F)C(C)C)c4cnccn34)CC2)CC1` [Example 139, N-(2,2-difluoroethyl)-5-fluoro-N-(isopropyl)-2-[6-(1-{[(1r,4r)-4-ethanesulfonamidocyclohexyl]methyl}piperidin-4-yl)pyrrolo[1,2-a]pyrazin-8-yl]benzamide]: the IC50 on Menin-MLL (setting [4]) was determined as 42 nM; in experiment [1] (MOLM-13, 168 h), 96 nM; in experiment [2] it was 44 nM.

As to `CCNC(=O)N1CCC(C(C)N2CC(c3cc(-c4ccc(F)cc4C(=O)N(CC)C(C)C)c4cnc(C)n4c3)C2)CC1` (stereo not drawn) [Example 285], the IC50 worked out at 4 nM at Menin-MLL (setting [3]), 23 nM in experiment [1] (168 h) and 5.4 nM in experiment [2].

Take `CCS(=O)(=O)N[C@@H]1CC[C@@H](CN2CC(c3cc(-c4ccc(F)cc4C(=O)N(CC(F)F)C(C)C)c4cnc(C)n4c3)C2)OC1` [Example 150, N-(2,2-difluoroethyl)-2-[6-(1-{[(2S,5R)-5-ethanesulfonamidooxacyclohexan-2-yl]methyl}azacyclobutan-3-yl)-3-methylimidazo[1,5-a]pyridin-8-yl]-5-fluoro-N-(isopropyl)benzamide]: the IC50 on Menin-MLL (setting [3]) came out at 24.5 nM; in experiment [1] (168 h), 36 nM; in experiment [2] it was 21 nM.

In the case of `CCC(=O)N1CCC(CN2CC(c3cc(-c4ccc(F)cc4C(=O)N4[C@H](C)COC[C@H]4C)c4c(F)nc(C)n4c3)C2)CC1` [Example 231], the IC50 at Menin-MLL (setting [3]) was 22.5 nM; in experiment [1] (168 h), 16 nM; in experiment [2] it was 6.1 nM.

As to `COC1CCN(CCC[C@H](C(C)C)N2CC(c3cc(-c4ccc(F)cc4C(=O)N4CCOC[C@H]4C)c4cnn(C)c4c3)C2)CC1` [Example 181-2, 4-{4-fluoro-2-[(3R)-3-methylmorpholin-4-carbonyl]phenyl}-6-{1-[(3R)-6-(4-methoxypiperidin-1-yl)-2-methylhexan-3-yl]azacyclobutan-3-yl}-1-methyl-1H-indazole], the half-inhibitory concentration (IC50) worked out at 13.5 nM at Menin-MLL (setting [3]), 39 nM in experiment [1] (168 h) and 7.9 nM in experiment [2].

For `Cc1nc(F)c2c(-c3ccc(F)cc3C(=O)N3CCOC[C@H]3C)cc(C3CN(C[C@H]4CC[C@@H](n5cncn5)CC4)C3)cn12` [Example 267, (3R)-4-{5-fluoro-2-[1-fluoro-3-methyl-6-(1-{[(1s,4s)-4-(1H-1,2,4-triazol-1-yl)cyclohexyl]methyl}azacyclobutan-3-yl)imidazo[1,5-a]pyridin-8yl]benzoyl}-3-methylmorpholine], the IC50 on Menin-MLL (setting [3]) was 12 nM; in experiment [1] (168 h), 45 nM; in experiment [2] it was 20 nM.

As to `Cc1nc(F)c2c(-c3ccc(F)cc3C(=O)N3[C@H](C)COC[C@H]3C)cc(C3CN([C@H](C)C4CCOCC4)C3)cn12` [Example 209-1, (3R,5R)-4-[5-fluoro-2-(1-fluoro-3-methyl-6-{1-[(1R)-1-(oxacyclohexan-4-yl)ethyl]azacyclobutan-3-yl}imidazo[1,5-a]pyridin-8-yl)benzoyl]-3,5-dimethylmorpholine], the IC50 was 29.5 nM on Menin-MLL (setting [3]), 21 nM in experiment [1] (168 h) and 12 nM in experiment [2].

Take `CCS(=O)(=O)N[C@H]1CC[C@H](CN2CCC(c3cc(-c4ccc(F)cc4C(=O)N(CC(F)F)C(C)C)c4cnc(C)n4c3)CC2)CC1` [Example 128]: the IC50 at Menin-MLL (setting [4]) is 37 nM; in experiment [1] (MOLM-13, 168 h), 30 nM; in experiment [2] it was 56 nM.

As for `Cc1nc(F)c2c(-c3ccc(F)cc3C(=O)N3CCOC[C@H]3C)cc(C3CN(CC4CCN(C(=O)C5(O)CC5)CC4)C3)cn12` [Example 248], the IC50 worked out at 30.5 nM at Menin-MLL (setting [3]), 63 nM in experiment [1] (168 h) and 34 nM in experiment [2].

On to `CNC(=O)N1CCC(CN2CC(c3cc(-c4ccc(F)cc4C(=O)N4[C@H](C)COC[C@H]4C)c4c(F)nc(C)n4c3)C2)CC1` [Example 222], for which the figures for the IC50 (at Menin-MLL (setting [3]); in experiment [1] (168 h); in experiment [2]) were 7 nM, 9 nM and 4.4 nM, respectively.

Turning to `Cc1ncc2c(-c3ccc(F)cc3C(=O)N3CCC[C@H]3C)cc(C3CN(C(C)C4CCOCC4)C3)cn12` (stereo partly drawn) [Example 190], the results for the half-maximal inhibitory concentration (IC50) (on Menin-MLL (setting [3]); in experiment [1] (168 h); in experiment [2]) were 29.5 nM, 40 nM and 25 nM, respectively.

On to `Cc1cncc2c(-c3ccc(F)cc3C(=O)N3[C@H](C)COC[C@H]3C)cc(CC3CN(CC4CCOCC4)C3)n12` [Example 230], for which the IC50 on Menin-MLL (setting [3]) is 2 nM; in experiment [1] (MOLM-13, 168 h), 2.9 nM; in experiment [2] it was 1 nM.

In the case of `Cc1nc(F)c2c(-c3ccc(F)cc3C(=O)N3CCOC[C@H]3C)cc(C3CN([C@@H](C)C4CCOCC4)C3)cn12` [Example 238-2, (3R)-4-[5-fluoro-2-(1-fluoro-3-methyl-6-{1-[(1S)-1-(oxacyclohexan-4-yl)ethyl]azacyclobutan-3-yl}imidazo[1,5-a]pyridin-8-yl)benzoyl]-3-methylmorpholine], the values for the IC50 (at Menin-MLL (setting [3]); in experiment [1] (168 h); in experiment [2]) were 18 nM, 27 nM and 11 nM, respectively.

With `Cc1nc(F)c2c(-c3ccc(F)cc3C(=O)N3CCOC[C@H]3C)cc(C3CN(CC4CCN(C(=O)CC#N)CC4)C3)cn12` [Example 249], the results for the IC50 (at Menin-MLL (setting [3]); in experiment [1] (168 h); in experiment [2]) were 24 nM, 44 nM and 50 nM, respectively.

`Cc1ncc2c(-c3ccc(F)cc3C(=O)N(CC(F)F)C(C)C)cc(C3CN(C(=O)[C@@H]4CCCCN4)C3)cn12` [Example 133]: the IC50 at Menin-MLL (setting [3]) turned out to be 30 nM; in experiment [1] (168 h), 31 nM; in experiment [2], 49 nM.

Turning to `Cc1nc(F)c2c(-c3ccc(F)cc3C(=O)N3CCOC[C@H]3C)cc(C3CN(CC4CCOCC4)C3)cn12` [Example 232, (3R)-4-[5-fluoro-2-(1-fluoro-3-methyl-6-{1-[(oxacyclohexan-4-yl)methyl]azacyclobutan-3-yl}imidazo[1,5-a]pyridin-8-yl)benzoyl]-3-methylmorpholine], the IC50 on Menin-MLL (setting [3]) stood at 17.5 nM; in experiment [1] (168 h) it was 34 nM; in experiment [2], 17 nM.

`COCCN(C)C1CC(C(C(C)C)N2CC(c3cc(-c4ccc(F)cc4C(=O)N4CCOC[C@H]4C)c4cnn(C)c4c3)C2)C1` (stereo partly drawn) [Example 195, 3-{1-[3-(4-{4-fluoro-2-[(3R)-3-methylmorpholin-4-carbonyl]phenyl}-1-methyl-1H-indazol-6-yl)azacyclobutan-1-yl]-2-methylpropyl}-N-(2-methoxyethyl)-N-methylcyclobutan-1-amine]: the results for the IC50 (at Menin-MLL (setting [3]); in experiment [1] (168 h); in experiment [2]) were 41 nM, 35 nM and 13 nM, respectively.

With `Cc1nc(F)c2c(-c3ccc(F)cc3C(=O)N3[C@H](C)COC[C@H]3C)cc(C3CN(CC4CCN(C(=O)CC#N)CC4)C3)cn12` [Example 226], the figures for the IC50 (at Menin-MLL (setting [3]); in experiment [1] (168 h); in experiment [2]) were 7.5 nM, 5.3 nM and 2.1 nM, respectively.

Regarding `CNCCCC(C(C)C)N1CC(c2cc(-c3ccc(F)cc3C(=O)N(CC(F)F)C(C)C)c3c(F)nc(C)n3c2)C1` (stereo not drawn) [Example 141, N-(2,2-difluoroethyl)-5-fluoro-2-(1-fluoro-3-methyl-6-{1-[2-methyl-6-(methylamino)hexan-3-yl]azacyclobutan-3-yl}imidazo[1,5-a]pyridin-8-yl)-N-(isopropyl)benzamide], the IC50 at Menin-MLL (setting [3]) stood at 5.5 nM; in experiment [1] (168 h), 5.4 nM; in experiment [2], 1.1 nM.
